Values joined by “and” are separate entries in the source; they are usually repeats but may differ in a detail not shown here. Equal values may be shown once.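 Dose response: 5 concentrations. Exposure: 48 h. Format: 96-well plates. Endpoint: linear interpolation; highest concentration if not reached. The concentration for 50% growth inhibition is given as GI50. At the TGI there is no net growth.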 *1 amine or outer side, *2 acyl side, *3 side chain or, on linkers, in order; H or OH if unused. Where a SMILES comes first, the peptide text is derived from it. Bridges are numbered along the chain shown (N, C = ends). Roman numbers before positions name the chains, in order. [ ]: non-standard residue; d: D form. Actinocin(9to1) = Cc1c2oc3c(C)ccc(C(=O)[*:1])c3nc-2c(C(=O)[*:2])c(N)c1=O; NMeF = CN[CH](Cc1ccccc1)C(=O)O; Sar = CNCC(=O)O
How the values were obtained:
Test in all cases: NCI-60 cell line screen, 48 h
HCT-116 colon = system: HCT-116 colon
HOP-62 NSCLC = system: HOP-62 NSCLC
OVCAR-5 ovarian = system: OVCAR-5 ovarian
SF-539 CNS = system: SF-539 CNS
SK-MEL-5 melanoma = system: SK-MEL-5 melanoma
UACC-257 melanoma = system: UACC-257 melanoma
HS 578T breast = system: HS 578T breast
MDA-MB-231 breast = system: MDA-MB-231 breast
MDA-MB-435 = system: MDA-MB-435
NCI-H226 lung = system: NCI-H226 lung

Row | SMILES | TGI (HCT-116 colon) | TGI (HOP-62 NSCLC) | TGI (OVCAR-5 ovarian) | TGI (SF-539 CNS) | TGI (SK-MEL-5 melanoma) | TGI (UACC-257 melanoma) [µM] | GI50 (HCT-116 colon) [µM] | GI50 (HOP-62 NSCLC) [nM] | GI50 (HS 578T breast) [nM] | TGI (HS 578T breast) | GI50 (MDA-MB-231 breast) | TGI (MDA-MB-231 breast) [µM] | GI50 (MDA-MB-435) [nM] | TGI (MDA-MB-435) | GI50 (OVCAR-5 ovarian) | GI50 (SF-539 CNS) [nM] | GI50 (SK-MEL-5 melanoma) [nM] | GI50 (UACC-257 melanoma) [µM] | GI50 (NCI-H226 lung) [µM] | TGI (NCI-H226 lung) [µM]
1 | Cn1c(=O)c2/c(n(C)c1=O)=N\C=c1\c(=O)n(C)c(=O)n(C)\c1=N\C=2 | > 100 µM | > 100 µM | > 100 µM | > 100 µM | > 100 µM | > 100 |  |  |  |  |  |  |  |  |  |  |  |  |  | 
2 | O=C(CCc1ccc(O)cc1)N/N=C/c1cc(Br)ccc1O | > 100 µM | 57.6 µM | > 100 µM | 35.4 µM | 18.1 µM | 11.4 | 4.34 | 6760 | 10100 | > 100 µM | 4450 nM | 53.6 | 6310 | > 100 µM | 6770 nM | 4030 | 3400 | 2.62 |  | 
3 | CS(=O)(=O)N(c1cc(-c2ccc3ncnc(Nc4cccc(Cl)c4)c3c2)cnc1Cl)S(C)(=O)=O | 3.74 µM | 12.8 µM | 6.55 µM | 4.33 µM | 1.41 µM |  | 0.622 | 443 | 236 | 6.08 µM | 925 nM | 6.21 | 443 | 4.07 µM | 181 nM | 533 | 306 |  | 1.04 | 9.75
4 | Brc1cc2c(cc1Br)CN(c1ccccc1)C2 | > 100 µM | > 100 µM | > 100 µM | > 100 µM | > 100 µM | > 100 |  |  |  |  |  |  |  |  |  |  |  |  |  | > 100
5 | O=C(/C=C\c1ccccc1)N1CCc2ccccc2C1 | > 100 µM | > 100 µM |  | > 100 µM | 39.9 µM | > 100 |  |  |  | > 100 µM |  | > 100 |  | 84.1 µM |  |  |  |  |  | > 100
6 | C[C@]12CCC(=O)C=C1CC[C@@H]1C2CC[C@]2(C)c3nn(-c4ccccc4)nc3CC12 (stereo not given in full) | > 100 µM | > 100 µM | > 100 µM | > 100 µM | > 100 µM | > 100 |  |  |  |  |  |  |  |  |  |  |  |  |  | > 100
7 | CN(C)CC/C(=N\Nc1ccc(Cl)cc1Cl)c1ccccc1 | 27.9 µM | 30.3 µM | 30.7 µM | 35 µM | 27.9 µM | 30.1 |  |  |  |  |  |  |  |  |  |  |  |  |  | 
8 | NNC(=O)C(=O)N/N=C(\CCC(=O)Nc1ccc(Cl)cc1)Cc1nc2ccccc2s1 | > 100 µM | > 100 µM | > 100 µM | 90.4 µM | 43.6 µM | > 100 |  |  |  |  |  |  |  |  |  |  |  |  |  | > 100
9 | Cc1cccc2c(O)cc(=O)oc12 | > 100 µM | > 100 µM | > 100 µM | > 100 µM |  | > 100 |  |  |  |  |  |  |  |  |  |  |  |  |  | > 100
10 | O=S1Nc2c(Cl)cc(Cl)c(Cl)c2S1 (stereo not given) | > 100 µM | > 100 µM | > 100 µM | > 100 µM | > 100 µM | > 100 |  |  |  |  |  |  |  |  |  |  |  |  |  | > 100
11 | O=NN(CCCl)C(=O)NC1CCC(CC2CCC(NC(=O)N(CCCl)N=O)CC2)CC1 (stereo not given) | > 100 µM | 82.3 µM | > 100 µM | 25 µM | > 100 µM | > 100 |  |  |  |  |  |  |  |  |  |  |  |  |  | > 100
12 | OCCN1CCN(CC/C=C2/c3ccccc3Sc3ccc(Cl)cc32)CC1 | 21.7 µM | 29.7 µM | 30.9 µM | 25.7 µM | 16.5 µM | 7.16 |  |  |  |  |  |  |  |  |  |  |  |  |  | 28.2
13 | CCCCCCCCCCC(C)CCCCCCC(=O)O (stereo not given) | > 100 µM | > 100 µM | > 100 µM | > 100 µM | > 100 µM | > 100 |  |  |  |  |  |  |  |  |  |  |  |  |  | > 100
14 | CC(=O)N/C(=C\c1ccc(Cc2nc3c([nH]2)C(=O)c2ccccc2C3=O)cc1)c1nc2c([nH]1)C(=O)c1ccccc1C2=O | > 100 µM | > 100 µM | > 100 µM | > 100 µM | > 100 µM | > 100 |  |  |  |  |  |  |  |  |  |  |  |  |  | > 100
15 | Cc1c(Cl)cccc1NC(=O)c1sc2nc3c(cc2c1N)CCCCC3 | > 50 µM | 45.3 µM | > 50 µM | 9.07 µM | 48.6 µM |  | 0.196 | 411 | 227 | > 50 µM | 827 nM | > 50 | 104 | 0.317 µM | 1330 nM | 171 | 263 |  | 4.68 | 34.1
16 | Cc1c2oc3c(C)ccc(C(=O)NC4C(=O)NC(C(C)C)C(=O)N5CCCC5C(=O)N(C)CC(=O)N(C)C(Cc5ccccc5)C(=O)OC4C)c3nc-2c(C(=O)NC2C(=O)NC(C(C)C)C(=O)N3CCCC3C(=O)N(C)CC(=O)N(C)C(Cc3ccccc3)C(=O)OC2C)c(N)c1=O (stereo not given) (I: TVP[Sar][NMeF] / II: TVP[Sar][NMeF]; ester I:1-I:C, II:1-II:C; linker I:N-II:N via Actinocin(9to1); configuration not given here) | 0.194 µM and > 1 µM | < 0.0134 µM and 0.0328 µM | 2.01 µM and > 0.41 µM | < 0.01 µM and 0.0439 µM | < 0.01 µM and 0.0479 µM |  | < 0.01 |  |  | < 0.01 µM and 0.0685 µM | < 10 nM and 31.7 nM |  |  | < 0.01 µM and 0.095 µM | < 10 nM and 33.5 nM |  |  |  |  | 
17 | CCN(CC)CC(=N)N(CC)c1ccccc1 | > 100 µM | > 100 µM | > 100 µM | > 100 µM | > 100 µM | > 100 |  |  |  |  |  |  |  |  |  |  |  |  |  | > 100
18 | O=C(/C=C\c1cccc2ccccc12)c1cccc2ccccc12 | 13.4 µM | 39.7 µM |  | 28 µM | 27.1 µM | 29.9 | 3.36 |  |  |  |  |  |  |  |  |  |  |  | 12.2 | 25
19 | Oc1c(CN2CCN(c3ccccc3)CC2)cc(Br)c2cccnc12 | > 28.4 µM | 15.2 µM | > 67.4 µM | > 28.6 µM |  | > 100 |  |  |  | > 88.6 µM |  | 15.7 |  | > 100 µM |  |  |  |  |  | 
20 | CC(=O)[O-].O=C([CH-]C(=O)c1ccccc1)c1ccccc1.O=C([CH-]C(=O)c1ccccc1)c1ccccc1.[Sm+3] | 18.2 µM | 9.04 µM | 63.1 µM | 45.2 µM | 10.2 µM | 24.1 | 5.05 | 1960 |  |  |  |  |  |  | 21400 nM | 14600 | 1660 | 5.66 | 1.52 | 9.69
21 | C=CC1=C(C)C2=NC1=CC1=NC(=C(CC)/C1=C\O)C=C1N=C3C(=C1C)C(=O)[C@H](C(=O)OC)C3=C1NC(=C2)[C@@H](C)[C@@H]1CCC(=O)O | > 100 µM |  | > 100 µM | > 100 µM | > 100 µM | > 100 |  |  |  | > 100 µM |  | > 100 |  | > 100 µM |  |  |  |  |  | > 100
22 | C/C=N\N1C(=O)c2ccccc2C1=O | > 100 µM | > 100 µM | > 100 µM | > 100 µM | > 100 µM | > 100 |  |  |  |  |  |  |  |  |  |  |  |  |  | > 100
